In ChEMBL document CHEMBL1201862, “PubChem BioAssay data set” (2004):
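Dose response: 5 concentrations. Exposure: 48 h. Format: 96-well plates. Endpoint: linear interpolation; highest concentration if not reached. Abbreviation: GI50, concentration required for 50% inhibition of growth.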 The source made the active and inactive calls. Rule as the data show it: active = GI50 up to about 1.1 µM and inactive = higher.

Legend:
Assay in all cases: NCI-60 cell line screen, 48 h
A498 = test system: A498
A549 = test system: A549
COLO 205 = test system: COLO 205
HCC 2998 = test system: HCC 2998
HCT-116 = test system: HCT-116
HL-60 = test system: HL-60
HOP-92 = test system: HOP-92
HT-29 = test system: HT-29
LOX IMVI = test system: LOX IMVI
MDA-MB-435 = test system: MDA-MB-435
MOLT-4 = test system: MOLT-4
NCI-H522 = test system: NCI-H522
NCI/ADR-RES = test system: NCI/ADR-RES
OVCAR-3 = test system: OVCAR-3
OVCAR-8 = test system: OVCAR-8
RPMI-8226 = test system: RPMI-8226
SF-295 = test system: SF-295
SR = test system: SR
U-251 = test system: U-251
UO-31 = test system: UO-31

Measured: GI50

CCOC(=O)C1=C(C)NC(C)=C(C(=O)OCCNC(=O)c2ccc(N=[N+]=[N-])cc2)C1c1ccccc1C(F)(F)F (stereo not given) [AZIDOPINE]
inactive: A498 > 10 µM | A549 8 µM | COLO 205 6.25 µM | HCC 2998 13.2 µM | HCT-116 9.73 µM | HL-60 7.66 µM | HOP-92 2.01 µM | HT-29 9.46 µM | LOX IMVI 10.7 µM | MDA-MB-435 9.27 µM | MOLT-4 4.09 µM | NCI-H522 8.39 µM | NCI/ADR-RES 8.28 µM | OVCAR-3 9.06 µM | OVCAR-8 14.8 µM | RPMI-8226 4.37 µM | SF-295 8.61 µM | SR 4.44 µM | U-251 10.9 µM | UO-31 4.79 µM

CC(=O)O[C@H]1CC[C@@]2(C)C(=CC[C@H]3[C@@H]4C[C@H](N5CCOCC5)[C@H](OC(C)=O)[C@@]4(C)CC[C@@H]32)C1
inactive: A498 > 100 µM | A549 > 100 µM | COLO 205 > 100 µM | HCC 2998 > 100 µM | HCT-116 > 100 µM | HL-60 54.2 µM | HOP-92 > 100 µM | HT-29 32.4 µM | LOX IMVI > 100 µM | MDA-MB-435 > 100 µM | MOLT-4 > 100 µM | NCI-H522 > 100 µM | NCI/ADR-RES > 100 µM | OVCAR-3 > 100 µM | OVCAR-8 > 100 µM | RPMI-8226 92.5 µM | SF-295 > 100 µM | SR 86.5 µM | U-251 > 100 µM | UO-31 > 100 µM

CCCC(=O)OC(OC(=O)CCC)c1ccc([N+](=O)[O-])o1
inactive: A498 > 100 µM | A549 > 100 µM | COLO 205 23.3 µM | HCC 2998 15.9 µM | HCT-116 16.9 µM | HL-60 26.3 µM | HOP-92 22.9 µM | HT-29 22.6 µM | LOX IMVI 21.7 µM | MDA-MB-435 20.7 µM | MOLT-4 31.1 µM | NCI-H522 13.4 µM | NCI/ADR-RES 39.2 µM | OVCAR-3 20.9 µM | OVCAR-8 32.2 µM | RPMI-8226 22.6 µM | SF-295 > 100 µM | SR 18 µM | U-251 34.3 µM | UO-31 21.1 µM

O=C(NC(Nc1ccc(F)c(Cl)c1)(C(F)(F)F)C(F)(F)F)OCc1ccccc1
inactive: A498 37.2 µM | A549 43 µM | COLO 205 17.8 µM | HCC 2998 22.1 µM | HCT-116 47.5 µM | HL-60 11.5 µM | HOP-92 23.2 µM | HT-29 34 µM | LOX IMVI 64.7 µM | MDA-MB-435 32.1 µM | MOLT-4 26.4 µM | NCI-H522 22.7 µM | NCI/ADR-RES 27.7 µM | OVCAR-3 17.3 µM | OVCAR-8 35 µM | RPMI-8226 20.4 µM | SF-295 28.2 µM | SR 11 µM | U-251 29.2 µM | UO-31 19.8 µM

CCc1nc(N)nc(N)c1-c1ccc(N2CCOCC2)c(N=[N+]=[N-])c1
inactive: A498 > 92 µM | A549 21.2 µM | COLO 205 79.6 µM | HCC 2998 47.9 µM | HCT-116 18.4 µM | HL-60 > 28.2 µM | HOP-92 78.3 µM | HT-29 31.8 µM | LOX IMVI 38.7 µM | MDA-MB-435 55.1 µM | MOLT-4 64.3 µM | NCI-H522 20.9 µM | NCI/ADR-RES > 100 µM | OVCAR-3 77.6 µM | OVCAR-8 61.7 µM | RPMI-8226 > 89.5 µM | SF-295 63 µM | SR 36.9 µM | U-251 67 µM | UO-31 > 100 µM

O=C1CC(c2ccc([N+](=O)[O-])cc2)C2(C(=O)NC(=S)NC2=O)C(c2ccc([N+](=O)[O-])cc2)C1 (stereo not given)
inactive: A498 32.4 µM | A549 19.6 µM | COLO 205 33.5 µM | HCC 2998 24.4 µM | HCT-116 16.7 µM | HL-60 51.6 µM | HOP-92 26.9 µM | HT-29 59.8 µM | LOX IMVI 19 µM | MDA-MB-435 15 µM | MOLT-4 73.3 µM | NCI-H522 18.9 µM | NCI/ADR-RES 31.6 µM | OVCAR-3 32 µM | OVCAR-8 19.3 µM | RPMI-8226 42.9 µM | SF-295 25.5 µM | SR 52.2 µM | U-251 18.7 µM | UO-31 25.4 µM

CCCCCCCCCCCCc1ccsc1-c1ccc(-c2ccc(-c3sccc3CCCCCCCCCCCC)s2)s1
inactive: A498 > 100 µM | A549 > 100 µM | COLO 205 > 100 µM | HCC 2998 > 100 µM | HCT-116 > 100 µM | HL-60 > 100 µM | HOP-92 > 100 µM | HT-29 > 100 µM | LOX IMVI > 100 µM | MDA-MB-435 > 100 µM | MOLT-4 > 100 µM | NCI-H522 > 100 µM | NCI/ADR-RES > 100 µM | OVCAR-3 > 100 µM | OVCAR-8 > 100 µM | RPMI-8226 > 100 µM | SF-295 > 100 µM | SR > 100 µM | U-251 > 100 µM | UO-31 > 100 µM
